For data set [1], the system named is Dunning R3327-G prostate cancer model. The data set can be described thus: Anti-tumor efficacy in the syngeneic Dunning rat R3327-G model. It is filed as in vivo. The procedure: The Dunning R3327-G tumor [51] was maintained by serial in vivo passages. For the efficacy experiment, tumor tissue pieces of 8 mm^3 were inoculated subcutaneously (flank region) in 12-13 week-old male Copenhagen rats (COP/CrCrl strain, Charles River Laboratories). Treatment was started once the tumor reached 50 mm^2 and rats were randomly assigned to control (n = 9), castrated (n = 10) or treatment group (n = 10). In the treatment group 40 mg/kg of BAY 1024767 was given orally once a day (p.o., QD). The vehicle was NMP/PEG 1/9 (v/v). Rat body weight was measured at least twice a week. Tumor volume and weight were determined as above.

In a further data set the target is AR H874Y (Homo sapiens, UniProt P10275, H875Y). The data set can be described thus: cell-based. As to conditions: IC50 (antagonistic activity).
Chain of AR H874Y (P10275 whole entry H875Y): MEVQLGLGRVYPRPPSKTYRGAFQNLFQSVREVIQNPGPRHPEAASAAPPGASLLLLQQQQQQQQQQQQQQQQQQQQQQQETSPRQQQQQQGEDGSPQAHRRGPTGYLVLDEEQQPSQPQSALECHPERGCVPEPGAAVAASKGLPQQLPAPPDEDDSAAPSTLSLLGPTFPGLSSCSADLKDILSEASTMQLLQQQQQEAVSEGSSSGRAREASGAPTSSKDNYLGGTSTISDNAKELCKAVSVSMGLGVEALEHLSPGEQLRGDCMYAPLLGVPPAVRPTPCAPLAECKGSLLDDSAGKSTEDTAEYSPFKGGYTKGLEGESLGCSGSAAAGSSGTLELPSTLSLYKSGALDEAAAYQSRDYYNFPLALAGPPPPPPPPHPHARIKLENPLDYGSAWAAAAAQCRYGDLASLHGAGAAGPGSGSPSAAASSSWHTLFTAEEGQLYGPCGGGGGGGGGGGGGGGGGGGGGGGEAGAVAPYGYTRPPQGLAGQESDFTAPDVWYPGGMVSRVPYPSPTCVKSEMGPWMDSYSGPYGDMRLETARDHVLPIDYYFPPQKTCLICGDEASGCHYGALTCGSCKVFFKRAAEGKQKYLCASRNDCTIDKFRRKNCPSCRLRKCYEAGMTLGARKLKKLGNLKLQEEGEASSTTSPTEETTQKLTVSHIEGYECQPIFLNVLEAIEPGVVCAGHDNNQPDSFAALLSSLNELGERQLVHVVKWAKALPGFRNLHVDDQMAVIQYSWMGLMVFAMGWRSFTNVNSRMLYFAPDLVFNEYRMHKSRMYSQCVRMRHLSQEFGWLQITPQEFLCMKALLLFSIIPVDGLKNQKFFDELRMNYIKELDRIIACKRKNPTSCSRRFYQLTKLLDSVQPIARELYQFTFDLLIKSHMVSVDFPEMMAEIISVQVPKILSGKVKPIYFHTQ
Another data set deals with T1, AR wild-type (Homo sapiens, UniProt P10275).
T1 sequence (P10275 1-920): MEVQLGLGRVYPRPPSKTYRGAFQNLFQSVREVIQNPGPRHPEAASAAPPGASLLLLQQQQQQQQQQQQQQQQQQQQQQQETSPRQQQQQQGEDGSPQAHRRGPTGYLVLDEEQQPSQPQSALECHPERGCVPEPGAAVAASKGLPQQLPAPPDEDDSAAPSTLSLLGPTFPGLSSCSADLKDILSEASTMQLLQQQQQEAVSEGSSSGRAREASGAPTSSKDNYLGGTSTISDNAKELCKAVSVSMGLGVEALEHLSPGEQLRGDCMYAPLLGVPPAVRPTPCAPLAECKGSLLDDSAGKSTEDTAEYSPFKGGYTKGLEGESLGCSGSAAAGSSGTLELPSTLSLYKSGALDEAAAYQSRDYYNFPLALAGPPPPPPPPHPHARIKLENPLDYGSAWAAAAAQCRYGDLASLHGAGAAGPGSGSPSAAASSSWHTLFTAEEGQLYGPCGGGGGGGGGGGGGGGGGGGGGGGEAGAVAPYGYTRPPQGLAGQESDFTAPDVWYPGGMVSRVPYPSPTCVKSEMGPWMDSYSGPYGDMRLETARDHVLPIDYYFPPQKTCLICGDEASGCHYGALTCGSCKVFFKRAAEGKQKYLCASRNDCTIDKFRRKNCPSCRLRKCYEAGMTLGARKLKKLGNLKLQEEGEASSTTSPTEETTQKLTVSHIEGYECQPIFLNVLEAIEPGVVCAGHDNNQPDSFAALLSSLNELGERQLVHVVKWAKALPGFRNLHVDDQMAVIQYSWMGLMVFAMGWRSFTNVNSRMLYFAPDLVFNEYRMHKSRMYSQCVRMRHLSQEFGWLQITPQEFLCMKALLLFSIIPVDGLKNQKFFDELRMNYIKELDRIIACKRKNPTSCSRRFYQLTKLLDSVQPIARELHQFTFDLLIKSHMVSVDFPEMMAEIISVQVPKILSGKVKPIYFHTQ
The data set can be described thus: cell-based. As to conditions: IC50 (antagonistic activity).

The next data set has as its target T2, AR F876L (Homo sapiens, UniProt P10275, F877L).
T2 sequence (P10275 1-920 F877L): T1 sequence (P10275 1-920) with F877L
The data set can be described thus: cell-based. The conditions noted are these: IC50 (antagonistic activity).

Data set [2] deals with PSA and FKBP5 expression in LNCaP cells (AR T877A mutant). The data set can be described thus: mRNA expression of androgen target genes (real-time PCR). The conditions noted are these: 1 nM R1881, 24 h. Type of data set: cell-based, human. How it is done:
(§1) VCaP or LNCaP cells were seeded into 6-well plates in RPMI 1640 medium without phenol red, supplemented with 10% charcoal-stripped fetal calf serum (cFCS) and 2 mM stable glutamine, and maintained for 2 days prior to treatment. […] After 24 h treatment, total RNA was extracted using the RNeasy Mini Kit (Qiagen, Hilden, Germany) and reverse-transcription was performed using the SuperScript™ III First-Strand Synthesis SuperMix for qRT-PCR (Invitrogen, Carlsbad, […]). Transcript levels of AR target genes were determined by real-time PCR using the following assays (Applied Biosystems, Foster City, CA, USA): PSA Hs02576345_m1 and FKBP5 Hs00188025_m1. Human PPIA (Cyclophilin A) 4326316E was used as an internal control.

Data set [3] concerns PSA and FKBP5 expression in VCaP cells (AR wild-type). The description is as above. Type of data set: cell-based, human. As to conditions: 1 nM R1881, 24 h. The procedure:
as §1

Changes are numbered by the printed parent chain.

With `CC(C)(O)COc1ccc(CN2C(=S)N(c3ccc(C#N)c(C(F)(F)F)c3)C(=O)C2(C)C)cn1` [BAY 1024767], the body weight result in data set [1] (40 mg/kg p.o. daily) is “No significant body weight loss”. The tumor volumes entry in data set [1] (40 mg/kg p.o. daily) is “significant anti-tumor efficacy”. For the same molecule, the seminal vesicle weight result in data set [1] (40 mg/kg p.o. daily, comparable to castrated group, data not shown) was “strong inhibition”. In data set [1] (40 mg/kg p.o. qdx49, day 113 post-tumor implantation), the “% T/C (tumor weight)” value is 11%. For the same molecule, the IC50 turned out to be 31 nM on AR H874Y (R1881 0.1 nM); 160 nM against AR H874Y (R1881 1 nM); 46 nM against AR wild-type (R1881 0.1 nM); 260 nM against AR wild-type (R1881 1 nM); 1600 nM against AR wild-type (R1881 10 nM); 106 nM at AR F876L (R1881 0.1 nM). In addition, the IC50 on AR F876L (R1881 1 nM) amounted to 293 nM; at AR F876L (R1881 10 nM) it was 2060 nM. The “PSA and FKBP5 expression” value in data set [2] and in data set [3] was “dose-dependent down-regulations” throughout.

The record behind these values is article PMC4868737, “BAY 1024767 blocks androgen receptor mutants found in castration-resistant prostate cancer patients” (Oncotarget, 2016).
